The numbers were not newly measured in patent publication US5989583A, “Solid lipid compositions of lipophilic compounds for enhanced oral bioavailability” (Pharmos Ltd., priority 1996, dated 1999), which cites them from elsewhere.

Data set [1] relates to patients with severe heart failure. As to conditions: 40 patients with severe heart failure, long term treatment.
For data set [2], the system named is cultured cerebellar neurons. As to conditions: age-related and excitotoxin-induced degeneration.
The subject of the next data set is periodontal disease. As to conditions: supplements containing CoQ10.
For data set [3] the following is noted: for Water solubility (in words): water / aqueous solutions.
The conditions of data set [4]: 20 mg THC in a sesame oil formulation.

Turning to `COC1=C(OC)C(=O)C(C/C=C(\C)CC/C=C(\C)CC/C=C(\C)CC/C=C(\C)CC/C=C(\C)CC/C=C(\C)CC/C=C(\C)CC/C=C(\C)CC/C=C(\C)CCC=C(C)C)=C(C)C1=O` [CoQ10, 2,3-dimethoxy-5-methyl-6-decaprenyl-1,4-benzoquinone], the “oral bioavailability / systemic availability” value was “very low”. For the same molecule, in data set [1], the “patients showing improvement in their condition” value is recorded as 69%. The “Protection of neurons against degeneration” value in data set [2] is “protect cultured cerebellar neurons against age-related and excitotoxin-induced degeneration”. Also, the “Effect on periodontal disease” value in the data set on periodontal disease is “the progress of the disease was not only stopped, but accelerated tissue healing was initiated as well”. Moreover, in data set [3], the “Water solubility (in words)” value is “practically insoluble in water”.

Take `CCCCCCC(C)(C)c1cc(O)c2c(c1)OC(C)(C)[C@H]1CC=C(CO)C[C@H]21` [Dexanabinol, (+)-(3S, 4S) -7-hydroxy-Δ^6-tetra hydrocannabinol-1,1-dimetylheptyl]: the “oral bioavailability / systemic availability” value is “poor oral bioavailability”. Besides, the Water solubility result in data set [3] (water) is given as “less than 50 μg/ml”.

Turning to `CCCCCc1cc(O)c2c(c1)OC(C)(C)[C@@H]1CCC(C)=C[C@@H]21` [THC, tetrahydrocannabinol], the “maximal plasma levels after oral dosing” value in data set [4] was “around 10 ng/ml”.

On to `C=C(C)[C@@H]1CCC(C)=C[C@H]1c1c(O)cc(CCCCC)cc1O` [cannabidiol], for which the “Water solubility (in words)” value in data set [3] is “a few micrograms/ml or less”.

As for `CCCCCc1cc(O)c2c(c1)OC(C)(C)c1ccc(C)cc1-2` [cannabinol], the “Water solubility (in words)” value in data set [3] is on record as “a few micrograms/ml or less”.

For `CCCCCc1cc(O)c2c(c1)OC(C)(C)[C@@H]1CCC(C)=C[C@@H]21` [Δ^1 -THC, Δ^1 -tetrahydrocannabinol], the “Water solubility (in words)” value in data set [3] is on record as “a few micrograms/ml or less”.

For `CCCCCc1cc(O)c2c(c1)OC(C)(C)[C@@H]1CC=C(C)C[C@@H]21` [Δ^6 -THC, Δ^6 -tetrahydrocannabinol], the “Water solubility (in words)” value in data set [3] is listed as “a few micrograms/ml or less”.
